Among the data in patent publication US8536204B2, “Amides and thioamides as pesticides” (Bayer CropScience AG, priority 2009, dated 2013) are chromatographic logP and pest or weed control values, retold here.

Tested on in the first data set: not listed separately
The data set is described as follows: Determination of the logP values (formic acid method) by HPLC. Type of data set: physicochemical. To be noted: HPLC on reversed-phase column (C 18), acidic range (pH 3.4), 55° C.; Table 1; read-out: logP (HCOOH). On the procedure: 1) Description of Method for Determining the LogP Values (Formic Acid Method)
The logP values reported in the table were determined according to EEC-Directive 79/831 Annex V.A8 by HPLC (High Performance Liquid Chromatography) on a reversed-phase column (C 18). Temperature: 55° C.
Eluents for the determination in the acidic range (pH 3.4):
Eluent A: acetonitrile+1 ml of formic acid/litre. Eluent B: water+0.9 ml of formic acid/litre.
Gradient: from 10% eluent A/90% eluent B to 95% eluent A/5% eluent B in 4.25 min.
The calibration was effected with unbranched alkan-2-ones (with 3 to 16 carbon atoms), whose logP values are known (determination of the logP values on the basis of the retention times by linear interpolation between two successive alkanones). The lambda-max values were determined with reference to the UV spectra from 200 nm to 400 nm in the maxima of the chromatographic signals.
On to `COC(=O)N(C)NC(=O)c1cn(-c2cccnc2)nc1C` [Example 54], for which the chromatographic logP worked out at 0.79.

Still in this data set, the particulars now being: reversed-phase HPLC column (C 18), pH 3.4, HPLC on reversed-phase column (C 18), acidic range (pH 3.4), 55° C.; Table 1; read-out: logP (HCOOH).
`Cc1nn(-c2cccnc2)cc1C(=O)NCCC(F)(F)F` [Example 32]: the chromatographic logP came out at 1.52.
Same read-out and setting: under `COc1cc(OC)nc(CNC(=O)c2cnn(-c3cccnc3)c2)n1` [Example 51] stands 1.37; under `CN(C(=O)c1cnn(-c2cccnc2)c1)C1CC1` [Example 19], 1.09; under `COC(=O)C(C)NC(=O)c1cn(-c2cccnc2)nc1C` (stereo not drawn) [Example 43], 1.14.
In the case of `CC(NC(=O)c1cnn(-c2cccnc2)c1)C1CC1` (stereo not drawn) [Example 14], the chromatographic logP worked out at 1.38.
The same measure, in the same setting: under `O=C(NCC(F)(F)C(F)(F)F)c1cnn(-c2cccnc2)c1` [Example 52] stands 1.69; under `CN(C(=O)c1cnn(-c2cccnc2)c1)C(C)(C)C#N` [Example 42], 1.09.
On to `O=C(NCC1COCCO1)c1cnn(-c2cccnc2)c1` (stereo not drawn) [Example 23], for which the chromatographic logP turned out to be 0.7.
The same measure, in the same setting: under `O=C(NC1(C(F)(F)F)CC1)c1cnn(-c2cccnc2)c1` [Example 13] stands 1.4; under `Cc1nn(-c2cccnc2)cc1C(=O)NCCOc1cc(Cl)ccc1Cl` [Example 57], 2.56.
On to `N#CCNC(=O)c1cnn(-c2cccnc2)c1` [Example 40], for which the chromatographic logP came to 0.52.
In the case of `CCNC(=O)c1cnn(-c2cccnc2)c1` [Example 1, N-Ethyl-1-(pyridin-3-yl)-1H-pyrazole-4-carboxamide], the chromatographic logP was 0.64.
As to `Cc1nn(-c2cccnc2)cc1C(=O)N(C)C1CC1` [Example 29], the chromatographic logP came to 1.17.
As to `Cc1nn(-c2cccnc2)cc1C(=O)NCC#N` [Example 44], the chromatographic logP came to 0.79.
Still for that read-out and setting: under `O=C(NCC1Cc2ccccc2O1)c1cnn(-c2cccnc2)c1` (stereo not drawn) [Example 17] stands 1.68; under `Cc1nn(-c2cccnc2)cc1C(=O)NCC1OCCO1` [Example 33], 0.88; under `FC(F)(F)CNC(=S)c1cnn(-c2cccnc2)c1` [Example 12, 1-(Pyridin-3-yl)-N-(2,2,2-trifluoroethyl)-1H-pyrazole-4-carbothioamide], 1.97.
In the case of `COC(CNC(=O)c1cn(-c2cccnc2)nc1C)OC` [Example 35], the chromatographic logP was found to be 1.04.
In the case of `Cc1nn(-c2cccnc2)cc1C(=O)NCC1Cc2ccccc2O1` (stereo not drawn) [Example 56], the chromatographic logP was 1.9.
Turning to `CON(C)C(=O)c1cnn(-c2cccnc2)c1` [Example 11], the chromatographic logP was 0.97.

The data set is the same for the next values; noted with them: reversed-phase HPLC column (C 18), pH 3.4, formic acid method, pH 3.4; given in the preparation examples; read-out: log P (HCOOH).
Regarding `CCNC(=O)c1cnn(-c2cccnc2)c1` [Example 1, N-Ethyl-1-(pyridin-3-yl)-1H-pyrazole-4-carboxamide], the chromatographic logP is 0.64.
Still for that read-out and setting: under `N#Cc1cnn(-c2cccnc2)c1` [1-(Pyridin-3-yl)-1H-pyrazole-4-carbonitrile] stands 0.98; under `FC(F)(F)CNC(=S)c1cnn(-c2cccnc2)c1` [Example 12, 1-(Pyridin-3-yl)-N-(2,2,2-trifluoroethyl)-1H-pyrazole-4-carbothioamide], 1.97.
Still for that read-out and setting: under `Cc1nn(-c2cccnc2)cc1C(=O)O` [3-Methyl-1-(pyridin-3-yl)-1H-pyrazole-4-carboxylic acid] stands 0.77; under `CCOC(=O)c1cn(-c2cccnc2)nc1C` [Ethyl 3-methyl-1-(pyridin-3-yl)-1H-pyrazole-4-carboxylate], 1.83; under `O=C(O)c1cnn(-c2cccnc2)c1` [1-(Pyridin-3-yl)-1H-pyrazole-4-carboxylic acid], 0.5.

The next data set concerns green peach aphid (Myzus persicae). The data set is described as follows: Myzus test (spray treatment). To be noted: 144 h, application rate 50 g/ha, spray on Chinese cabbage leaf slices, after 6 days, read-out: efficacy in % (100% means that all aphids have been killed). Format: in vivo. On the procedure: Myzus Test (Spray Treatment)
Solvent: • 78 parts by weight of acetone • 1.5 parts by weight of dimethylformamide
Emulsifier: 0.5 part by weight of alkylaryl polyglycol ether
To produce an appropriate active ingredient formulation, 1 part by weight of active ingredient is mixed with the amounts of solvent and emulsifier specified and the concentrate is diluted to the desired concentration with emulsifier-containing water.
Chinese cabbage leaf slices (Brassica pekinensis) infested by all stages of the green peach aphid (Myzus persicae) are sprayed with an active ingredient formulation of the desired concentration.
After 6 days, the efficacy in % is determined. 100% means that all aphids have been killed; 0% means that no aphids have been killed.
Turning to `O=C(NCC(F)(F)C(F)(F)F)c1cnn(-c2cccnc2)c1` [Example 52], the pest or weed control at 50 g/ha was 90%.

Still in this data set, the particulars now being: 144 h, application rate 500 g/ha, spray on Chinese cabbage leaf slices, after 6 days, read-out: efficacy in % (100% means that all aphids have been killed).
Turning to `Cc1nn(-c2cccnc2)cc1C(=O)NCCC(F)(F)F` [Example 32], the pest or weed control at 500 g/ha was 100%.
Same read-out and setting: under `CN(C(=O)c1cnn(-c2cccnc2)c1)C1CC1` [Example 19] stands 100%; under `COC(=O)N(C)NC(=O)c1cn(-c2cccnc2)nc1C` [Example 54], 100%.
On the same count and under the same terms, under `COC(=O)C(C)NC(=O)c1cn(-c2cccnc2)nc1C` (stereo not drawn) [Example 43] stands 100%; under `CC(NC(=O)c1cnn(-c2cccnc2)c1)C1CC1` (stereo not drawn) [Example 14], 100%; under `CN(C(=O)c1cnn(-c2cccnc2)c1)C(C)(C)C#N` [Example 42], 100%.
With `O=C(NCC1COCCO1)c1cnn(-c2cccnc2)c1` (stereo not drawn) [Example 23], the pest or weed control at 500 g/ha turned out to be 100%.
Consider `O=C(NC1(C(F)(F)F)CC1)c1cnn(-c2cccnc2)c1` [Example 13], for which the pest or weed control at 500 g/ha turned out to be 100%.
Same read-out and setting: under `N#CCNC(=O)c1cnn(-c2cccnc2)c1` [Example 40] stands 100%; under `Cc1nn(-c2cccnc2)cc1C(=O)N(C)C1CC1` [Example 29], 100%; under `Cc1nn(-c2cccnc2)cc1C(=O)NCC1OCCO1` [Example 33], 100%.
On to `FC(F)(F)CNC(=S)c1cnn(-c2cccnc2)c1` [Example 12, 1-(Pyridin-3-yl)-N-(2,2,2-trifluoroethyl)-1H-pyrazole-4-carbothioamide], for which the pest or weed control at 500 g/ha worked out at 80%.
On the same count and under the same terms, under `COC(CNC(=O)c1cn(-c2cccnc2)nc1C)OC` [Example 35] stands 100%.

Staying with this data set, now noted: in Brassica rapa, 144 h, read-out: efficacy in % (100% means that all aphids have been killed).
`CCNC(=O)c1cnn(-c2cccnc2)c1` [Example 1, N-Ethyl-1-(pyridin-3-yl)-1H-pyrazole-4-carboxamide]: the pest or weed control at 500 g/ha came to 100%.
